Data taken from patent US11040981B2, “Pyrrolotriazine compounds and methods of inhibiting TAM kinases” (Syros Pharmaceuticals, Inc., priority 2017, dated 2021).

Experiments:
MERTK = target: T1, MERTK (Homo sapiens, UniProt Q12866); test: TR-FRET kinase activity assay, MERTK; format: biochemical; conditions: for IC50: TR-FRET activity assay, ATP at Km, 60 minutes, read-out: Mer IC50; for FLT3/Mer ratio (FLT3 IC50/Mer IC50): ratio of Mer to FLT3: FLT3 IC50/Mer IC50
T1 sequence (Q12866 21-999): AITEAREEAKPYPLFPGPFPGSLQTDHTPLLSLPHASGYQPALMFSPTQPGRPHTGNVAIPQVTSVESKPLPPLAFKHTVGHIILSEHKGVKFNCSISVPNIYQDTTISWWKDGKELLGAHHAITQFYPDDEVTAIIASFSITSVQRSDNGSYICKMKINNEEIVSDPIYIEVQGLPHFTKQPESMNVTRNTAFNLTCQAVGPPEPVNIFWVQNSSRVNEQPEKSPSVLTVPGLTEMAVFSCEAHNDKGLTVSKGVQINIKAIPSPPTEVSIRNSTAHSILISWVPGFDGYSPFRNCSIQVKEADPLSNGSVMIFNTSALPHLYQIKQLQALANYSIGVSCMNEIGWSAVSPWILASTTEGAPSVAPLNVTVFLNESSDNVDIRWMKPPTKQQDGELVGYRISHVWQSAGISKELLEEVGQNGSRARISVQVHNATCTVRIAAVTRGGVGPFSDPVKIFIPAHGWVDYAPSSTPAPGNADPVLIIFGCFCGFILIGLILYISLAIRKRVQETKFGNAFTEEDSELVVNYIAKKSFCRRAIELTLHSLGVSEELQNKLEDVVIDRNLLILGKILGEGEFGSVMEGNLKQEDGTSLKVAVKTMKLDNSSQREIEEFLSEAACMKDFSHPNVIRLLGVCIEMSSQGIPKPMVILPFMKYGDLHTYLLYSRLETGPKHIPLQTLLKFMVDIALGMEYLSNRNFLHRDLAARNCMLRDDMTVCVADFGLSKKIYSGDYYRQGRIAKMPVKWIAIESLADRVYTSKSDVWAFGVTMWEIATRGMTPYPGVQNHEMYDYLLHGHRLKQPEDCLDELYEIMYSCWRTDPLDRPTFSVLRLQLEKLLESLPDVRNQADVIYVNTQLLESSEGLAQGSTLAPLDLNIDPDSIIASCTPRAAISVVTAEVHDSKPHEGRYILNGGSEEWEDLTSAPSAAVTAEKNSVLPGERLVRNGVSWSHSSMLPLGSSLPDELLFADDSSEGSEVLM
In short: (§1)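 Inhibition is measured as loss of phospho-peptide formation: kinase, fluorescent tyrosine peptide and compound are combined, ATP is added at Km, and the reaction proceeds 60 min at RT in pH 7.5 HEPES buffer. An EDTA stop and Eu-labelled phospho-specific antibody allow TR-FRET detection for IC50 fitting.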

TYRO3 = target: T2, TYRO3 (Homo sapiens, UniProt Q06418); test: TR-FRET kinase activity assay, TYRO3; format: biochemical; conditions: ATP at Km, 60 minutes
T2 sequence (Q06418 41-890): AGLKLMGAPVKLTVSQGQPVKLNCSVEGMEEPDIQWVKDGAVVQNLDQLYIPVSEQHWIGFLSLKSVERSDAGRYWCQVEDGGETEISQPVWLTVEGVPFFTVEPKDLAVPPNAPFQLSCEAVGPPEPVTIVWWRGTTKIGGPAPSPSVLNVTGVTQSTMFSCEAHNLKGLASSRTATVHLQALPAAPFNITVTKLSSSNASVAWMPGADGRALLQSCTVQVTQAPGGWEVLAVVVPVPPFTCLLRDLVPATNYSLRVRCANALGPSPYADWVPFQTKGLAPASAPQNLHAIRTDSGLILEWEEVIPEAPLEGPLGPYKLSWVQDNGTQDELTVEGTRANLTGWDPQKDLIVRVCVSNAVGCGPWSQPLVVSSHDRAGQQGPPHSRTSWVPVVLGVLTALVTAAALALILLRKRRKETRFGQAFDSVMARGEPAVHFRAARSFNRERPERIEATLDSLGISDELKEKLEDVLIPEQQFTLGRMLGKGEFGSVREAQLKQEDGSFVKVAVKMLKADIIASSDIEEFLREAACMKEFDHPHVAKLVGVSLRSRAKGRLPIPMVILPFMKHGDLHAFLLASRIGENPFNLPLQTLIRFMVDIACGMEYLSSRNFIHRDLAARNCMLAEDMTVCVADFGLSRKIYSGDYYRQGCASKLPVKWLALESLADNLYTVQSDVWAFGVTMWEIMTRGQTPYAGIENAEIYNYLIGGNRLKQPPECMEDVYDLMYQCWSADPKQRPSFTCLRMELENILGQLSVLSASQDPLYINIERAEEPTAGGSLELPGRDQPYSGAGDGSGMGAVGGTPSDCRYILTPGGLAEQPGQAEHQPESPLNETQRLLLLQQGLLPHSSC
In short: as §1

Compound | IC50 (MERTK) | FLT3/Mer ratio (FLT3 IC50/Mer IC50) (MERTK) | IC50 (TYRO3)
COC[C@H](C)Nc1ncc2c(-c3cnn(C4CN(CC(F)(F)F)C4)c3)cc([C@H]3CC[C@H](O)CC3)n2n1 [Compound 302] | ≤ 100 nM | +++ (“+++” represents a ratio of >100) | ≤ 100 nM
COCCn1cc(-c2cc([C@H]3CC[C@H](O)CC3)n3nc(N[C@@H](C)COC(F)F)ncc23)cn1 [Compound 274] | ≤ 100 nM | +++ (“+++” represents a ratio of >100) | ≤ 100 nM
COC[C@H](C)Nc1ncc2c(-c3cnn(C4CN(C(=O)C5COC5)C4)c3)cc([C@H]3CC[C@H](O)CC3)n2n1 [Compound 293] | ≤ 100 nM | +++ (“+++” represents a ratio of >100) | ≤ 100 nM
Cc1nnc(Cn2cc(-c3cc([C@H]4CC[C@H](O)CC4)n4nc(N[C@@H](C)COC(F)F)ncc34)cn2)o1 [Compound 312] | ≤ 100 nM | +++ (“+++” represents a ratio of >100) | ≤ 100 nM
C[C@@H](CC(F)(F)F)Nc1ncc2c(-c3cncc(C(=O)O)c3)cc([C@H]3CC[C@H](O)CC3)n2n1 [Compound 298] | ≤ 100 nM | +++ (“+++” represents a ratio of >100) | ≤ 100 nM
CC(CC(F)(F)F)Nc1ncc2c(-c3cnc(C(=O)O)nc3)cc(C3CCC(O)CC3)n2n1 (stereo not drawn) [Compound 299] | ≤ 100 nM | +++ (“+++” represents a ratio of >100) | ≤ 100 nM
CCCCC[C@H](C)Nc1ncc2c(N3CCC(N(C)C)CC3)cc(C3CCC(O)CC3)n2n1.Cl (stereo partly drawn) [Compound 115, 4-[5-[4-(dimethylamino)-1-piperidyl]-2-[[(1S)-1-methylhexyl]amino]pyrrolo[2,1-f][1,2,4]triazin-7-yl]cyclohexanol hydrochloride] | ≤ 100 nM | ++ (“++” represents a ratio of between 10 and 100) | 100 to 1000 nM
CC(CC(F)(F)F)Nc1ncc2c(-c3cncc(S(C)(=O)=O)c3)cc(C3CCC(O)CC3)n2n1 (stereo not drawn) [Compound 273] | ≤ 100 nM | +++ (“+++” represents a ratio of >100) | ≤ 100 nM
Cc1ccc(-c2cc([C@H]3CC[C@H](O)CC3)n3nc(N[C@@H](C)COC(F)F)ncc23)cn1 [Compound 321] | ≤ 100 nM | +++ (“+++” represents a ratio of >100) | ≤ 100 nM
CNC(=O)c1cc(-c2cc([C@H]3CC[C@H](O)CC3)n3nc(N[C@@H](C)COC)ncc23)cc(C)n1 [Compound 335] | ≤ 100 nM | +++ (“+++” represents a ratio of >100) | ≤ 100 nM
COC[C@H](C)Nc1ncc2c(-c3cnn(Cc4cnccn4)c3)cc([C@H]3CC[C@H](O)CC3)n2n1 [Compound 305] | ≤ 100 nM | +++ (“+++” represents a ratio of >100) | ≤ 100 nM
COC[C@H](C)Nc1ncc2c(-c3ccnc(C)c3)cc(C3CCC4(CC3)NC(=O)NC4=O)n2n1 (mixture of isomers) [Compound 325, (S)-8-(2-((1-methoxypropan-2-yl)amino)-5-(2-methylpyridin-4-yl)pyrrolo[2,1-f][1,2,4]triazin-7-yl)-1,3-diazaspiro[4.5]decane-2,4-dione] | ≤ 100 nM | +++ (“+++” represents a ratio of >100) | ≤ 100 nM
COC[C@H](C)Nc1ncc2c(-c3cnn(C4CN(CCC(F)(F)F)C4)c3)cc([C@H]3CC[C@H](O)CC3)n2n1 [Compound 291] | ≤ 100 nM | +++ (“+++” represents a ratio of >100) | ≤ 100 nM
CCCCC[C@H](C)Nc1ncc2c(C3=CC[C@@H](C(=O)N4CCOCC4)CC3)cc([C@H]3CC[C@H](O)CC3)n2n1 [Compound 113] | ≤ 100 nM | ++ (“++” represents a ratio of between 10 and 100) | ≤ 100 nM
COC[C@H](C)Nc1ncc2c(-c3cnn(C(C)(C)C(=O)N4C[C@H](C)O[C@@H](C)C4)c3)cc([C@H]3CC[C@H](O)CC3)n2n1 [Compound 328] | ≤ 100 nM | +++ (“+++” represents a ratio of >100) | ≤ 100 nM
COC[C@H](C)Nc1ncc2c(-c3ccnc(OC4CCCN(C)C4)c3)cc([C@H]3CC[C@H](O)CC3)n2n1 (stereo partly drawn) [Compound 341] | ≤ 100 nM | +++ (“+++” represents a ratio of >100) | ≤ 100 nM
COC[C@H](C)Nc1ncc2c(-c3ccnc(NC(C)C)c3)cc([C@H]3CC[C@H](O)CC3)n2n1 [Compound 337] | ≤ 100 nM | +++ (“+++” represents a ratio of >100) | ≤ 100 nM
C[C@@H](CC(F)(F)F)Nc1ncc2c(-c3ccc(S(C)(=O)=O)nc3)cc([C@H]3CC[C@H](O)CC3)n2n1 [Compound 297] | ≤ 100 nM | ++ (“++” represents a ratio of between 10 and 100) | ≤ 100 nM
COC[C@H](C)Nc1ncc2c(-c3ccc(S(C)(=O)=O)nc3)cc([C@H]3CC[C@H](O)CC3)n2n1 [Compound 279] | ≤ 100 nM | +++ (“+++” represents a ratio of >100) | ≤ 100 nM
COC[C@H](C)Nc1ncc2c(-c3cnn(Cc4ccnnc4)c3)cc([C@H]3CC[C@H](O)CC3)n2n1 [Compound 281] | ≤ 100 nM | +++ (“+++” represents a ratio of >100) | ≤ 100 nM
COC[C@H](C)Nc1ncc2c(-c3cnn(C(C)(C)C(=O)N4CCC4)c3)cc([C@H]3CC[C@H](O)CC3)n2n1 [Compound 283] | ≤ 100 nM | +++ (“+++” represents a ratio of >100) | ≤ 100 nM
CCCCC[C@H](C)Nc1ncc2c(N3CCC(C(=O)O)CC3)cc([C@H]3CC[C@H](O)CC3)n2n1 [Compound 117] | ≤ 100 nM | +++ (“+++” represents a ratio of >100) | 100 to 1000 nM
COC[C@H](C)Nc1ncc2c(-c3ccc(CN4CCOCC4)cc3)cc([C@H]3CC[C@H](NC(C)=O)CC3)n2n1 [Compound 300, N-((trans)-4-(2-(((S)-1-methoxypropan-2-yl)amino)-5-(4-(morpholinomethyl)phenyl)pyrrolo[2,1-f][1,2,4]triazin-7-yl)cyclohexyl)acetamide] | ≤ 100 nM | +++ (“+++” represents a ratio of >100) | ≤ 100 nM
COC[C@H](C)Nc1ncc2c(-c3ccnc(N4CCN(S(C)(=O)=O)CC4)c3)cc([C@H]3CC[C@H](O)CC3)n2n1 [Compound 338] | ≤ 100 nM | +++ (“+++” represents a ratio of >100) | ≤ 100 nM
Cc1cc(-c2cc([C@H]3CC[C@H](O)CC3)n3nc(N[C@@H](C)COC(F)F)ncc23)ccn1 [Compound 313] | ≤ 100 nM | +++ (“+++” represents a ratio of >100) | ≤ 100 nM
